# In patent US20170119896A1, “TERMINALLY MODIFIED POLYMERS AND CONJUGATES THEREOF” (Mersana Therapeutics, Inc., priority 2012, published 2017):
# Biological target: T1, glucagon-like peptide-1 receptor (GLP1R CHO-K1 Gs overexpressing cells) (Homo sapiens, UniProt P43220)
# T1 construct: host or cells: CHO-K1
# Experiment: DiscoveRx cAMP Hunter express GPCR Assay (cellular cAMP formation)
# Assay type: cell-based
# Settings: 30 min at 37° C., cAMP chemiluminescent signal, four-parameter curve fitting
# Procedure: The activity of terminally modified PHF exendin conjugates were measured using DiscoveRx cAMP Hunter express GPCR Assay which determines the cellular formation of a second messenger such as cAMP. […] It binds to glucagon-like peptide-1 receptor 1-G-protein coupled receptor (GPCR). Following stimulation of this receptor, intracellular signaling pathways are activated that lead to the production of intracellular second messengers, such as cAMP. Free cAMP molecules from cell lysates compete for antibody binding with a labeled enzyme donor (ED)-cAMP conjugate, which contains a small peptide fragment of β-galactosidase. In the absence of free cAMP, the ED-cAMP conjugates are captured by the cAMP-specific antibody and are unavailable for complementation with the enzyme acceptor (EA), resulting in a low signal. In the presence of free cAMP, antibody sites are occupied, allowing the ED-cAMP conjugate to complement with EA, forming an active β-galactosidase enzyme; substrate hydrolysis by this enzyme produces a chemiluminescent signal. The signal generated is in direct proportion to the amount of free cAMP […]. […] Luminescent signal was measured using a SpectraMax M5 plate reader (Molecular Devices). […] EC50 values were determined from four-parameter curve fitting.
# T1 sequence (P43220 24-463): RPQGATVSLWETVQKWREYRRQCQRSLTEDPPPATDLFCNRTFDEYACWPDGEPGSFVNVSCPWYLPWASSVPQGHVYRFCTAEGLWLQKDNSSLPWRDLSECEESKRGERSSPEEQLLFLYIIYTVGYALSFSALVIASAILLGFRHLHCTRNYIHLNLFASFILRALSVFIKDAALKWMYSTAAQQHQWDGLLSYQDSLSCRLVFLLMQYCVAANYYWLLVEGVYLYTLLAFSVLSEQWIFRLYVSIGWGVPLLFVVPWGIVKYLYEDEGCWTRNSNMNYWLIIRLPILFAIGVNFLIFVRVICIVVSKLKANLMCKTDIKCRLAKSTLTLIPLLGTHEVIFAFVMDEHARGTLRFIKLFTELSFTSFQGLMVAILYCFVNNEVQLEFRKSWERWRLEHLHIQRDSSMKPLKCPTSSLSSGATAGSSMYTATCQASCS
substance,measurement,value
"50 kDa PHF-6-maleimido hexanamide-Exendin-4-Cys (i.e., (Exendin-4-Cys)-(N-(2-maleimido)propanamido)propyl)-ethylamino-50 kDa PHF) [Example 15]",EC50,1.87 nM
